Reference: US5919761A, “Peptides for heparin and low molecular weight heparin anticoagulation reversal” (The Board of Regents of the University of Michigan, priority 1995, dated 1999)

How the values were obtained:
[1] = Percent change in platelet count after Enoxaparin reversal, canine study; assay type: in vivo; conditions: dogs, agent over 10 seconds
Description: (§2) Seven female dogs (mean weight 15-20 kg) received intravenous standard, unfractionated heparin (150 IU/kg IV) or LMWH (Enoxaparin, Rhone-Poulac, France; 100 IU/kg factor Xa activity) followed by reversal with commercial salmine protamine (n-protamine purchased from Eli Lilly, Indianapolis, Ind., 1.5 mg/kg (100 IU/mg) IV) or an anticoagulation-reversing agent which is a protamine-like peptide variant identified hereinbelow. In these studies, the anticoagulation-reversing agents were administered over a 10 second interval to maximize the hemodynamic effects.

[2] = test system: standard, unfractionated heparin; assay: Factor Xa and IIa reversal after standard heparin, cell adhesion ligand analogs, canine study; assay type: in vivo; conditions: dogs, 3 min post administration
Description: Anticoagulation reversal was assessed by a number of standard coagulation tests performed upon samples of venous blood in the manner described hereinabove. Measurements were made 3 minutes prior to heparin reversal (baseline) and 3 minutes, 10 minutes, and 30 minutes post-administration of the heparin reversal agent. […] Referring to FIGS. 4a through 4d, compound [+18RGD] performs as well, or better, than n-protamine in the standard coagulation tests performed in these studies.

[3] = Percent change in platelet count after standard heparin reversal, cell adhesion ligand analogs, canine study; assay type: in vivo; conditions: dogs, agent over 10 seconds
Description: In addition to hemodynamic changes, Table 15 lists the percent change in platelet count following administration of n-protamine and the selected variants, as well as the factor Xa and factor IIa reversal, as a percent change at 3 minutes post administration of the compound.

[4] = Hemodynamic studies and total toxicity score after standard heparin reversal, canine study; conditions: dogs
Description: As used hereinafter, the peptides will be identified by their total cationic charge value, e.g., [+8], [+16], etc.
Hemodynamic studies were conducted by measuring mean arterial pressure (MAP), heart rate (HR), and maximum percent changes in cardiac output (CO) and systemic oxygen consumption (VO2).
Total toxicity scores (TTS) were developed that reflected maximum declines in each of four parameters (MAP, CO, VO2 and HR) over the first 5 minutes after reversal, the latter being the time of expected greatest adverse hemodynamic effect. The maximum changes occurring in an individual dog over the first 5 minutes were divided by the standard deviation derived from the entire group of tested animals and the four scores were added, resulting in a TTS for each individual dog. The TTS values for each dog were then summed to obtain an average TTS and SD for each peptide studied.

LMWH (LHN-1, Logiparin) [5] = assay: Percent reversal of low molecular weight heparin anticoagulation, in vivo canine study, coagulation tests; design: species or system dogs; conditions: for aPTT reversal: Logiparin
Description: Anticoagulation reversal was assessed by a number of standard coagulation tests performed upon samples of venous blood: activated clotting time (ACT), heparin concentration by assay for FXa inhibitory activity (FXa), thrombin clotting time (TCT), and heparin concentration by assay for FIIa inhibitory activity (FIIa). Measurements were made 3 minutes prior to heparin reversal (baseline) and 3 minutes, 10 minutes, and 30 minutes post-administration of the heparin reversal agent. […] The coagulation data were corrected for naturally occurring metabolism.

[6] = Hemodynamic studies and total toxicity score after LMWH reversal at different rates, canine study; conditions: dogs, Logiparin
Description: The anticoagulation-reversing agents were administered rapidly over 10 seconds to maximize hemodynamic effects or more slowly over a 3 minute interval. Changes in LMWH anticoagulation occurring from metabolism alone were determined in a separate group of dogs not given any reversal agent.
(§3) Hemodynamic studies were conducted by measuring mean arterial pressure (MAP) in mm Mercury, maximum percent changes in cardiac output (CO) and systemic oxygen consumption (VO2), and heart rate (HR) in beats per minute. Measurements and calculations were made at baseline, before LMWH administration, 3 minutes before reversal, every 30 seconds for 5 minutes after reversal, and at 10, 20, and 30 minutes after reversal.
(§4) TTS were developed that reflected maximum declines in each of four parameters (MAP, CO, VO2 and HR) over the first 5 minutes after reversal in the same manner as described hereinabove.

[7] = Hemodynamic studies and total toxicity score after LMWH reversal, canine study; conditions: dogs, Logiparin
Description: as §3
Total toxicity scores (TTS) were developed that reflected maximum declines in each of four parameters (MAP, CO, VO2 and HR) over the first 5 minutes after reversal. The maximum changes occurring in an individual dog over the first 5 minutes were divided by the standard deviation derived from the entire group of tested animals and the four scores were added, resulting in a TTS for each individual dog. The TTS values for each dog were then summed to obtain an average TTS and SD for each peptide studied. The more negative the value of TTS, the more toxic the compound.

[8] = Hemodynamic studies and total toxicity score after standard heparin reversal at different rates, dogs
Description: Hemodynamic studies were conducted by measuring mean arterial pressure (MAP) in mm Mercury, maximum percent changes in cardiac output (CO) and systemic oxygen consumption (VO2), and heart rate (HR) in beats per minute. Measurements and calculations were made at baseline, before LMWH administration, 3 minutes before reversal, every 30 seconds for 5 minutes after reversal.
as §4

[9] = Maximum hemodynamic changes and total toxicity score after Enoxaparin reversal, canine study; conditions: dogs, agent over 10 seconds
Description: as §2

LMWH (LHN-1, Logiparin) [10] = assay: Percent reversal of LMWH anticoagulation, agents administered at different rates, canine study; assay type: in vivo, dogs
Description: Anticoagulation reversal was assessed by a number of standard coagulation tests performed upon samples of venous blood in the manner described hereinabove. Measurements were made 3 minutes prior to heparin reversal (baseline) and 3 minutes, 10 minutes, and 30 minutes post-administration of the heparin reversal agent.

[11] = Platelet and white blood cell count after LMWH reversal, canine study; assay type: in vivo; conditions: dogs, Logiparin
Description: In addition to the measurements reported on Table 6, studies were conducted to measure the activated partial thromboplastin time (aPTT), platelet count, and white blood cell count. […] However, the [+18B] variant produced greater aPTT reversal than protamine at the 3, 10 and 30 minute measurements (64%, 95%, and 93%, respectively, as compared to 50%, 83%, and 78%, respectively, for protamine).

[12] = Platelet and white cell counts after standard heparin reversal, canine study; assay type: in vivo; conditions: dogs, 3 minutes post-reversal, resolved by about 30 minutes
Description: (§1) Anticoagulation reversal was assessed by a number of standard coagulation tests performed upon samples of venous blood: activated clotting time (ACT), prothrombin time (PT), activated partial thromboplastin time (aPTT), thrombin clotting time (TCT), heparin concentration by assay for FXa inhibitory activity (FXa), white cell count (WBC), and platelet counts (PLT). Measurements were made 3 minutes prior to heparin reversal (baseline) and 3 minutes and 30 minutes post-administration of the heparin reversal agent. The "Heparin" row sets forth the observed reversal as a consequence of expected heparin metabolism or degradation alone.

[13] = test system: standard, unfractionated heparin; assay: Percent reversal of standard heparin anticoagulation by variant peptides and protamine, in vivo canine study, coagulation tests; design: species or system dogs; conditions: for Percent reversal of heparin anticoagulation, ACT: dogs, heparin 150 IU/kg IV, agent 1.5 mg/kg IV over 10 seconds
Description: Data are expressed as a mean ±1 SD. Statistical analysis using linear regression for determination of correlation coefficients, and analysis of variance (ANOVA) or unpaired two-way Student's t-test; p<0.05 was accepted as statistically significant.
as §1

[14] = administered over 10 sec, 3 min
[15] = administered over 10 sec, 10 min
[16] = administered over 10 sec, 30 min
[17] = administered over 3 min, 10 min
[18] = administered over 3 min, 30 min

## PR4 S3 RPVR5 PRVSR6 G2 R4 [Protamine [+21], reference compound]
[1]
  Platelet (percent change in platelet count): -40%
[2]
  IIa Reversal: 98%
  Xa Reversal: 99%
[3]
  Platelet (percent change in platelet count): -54%
[4]
  ΔHR: -29
[4]; average maximum decline in first five minutes after peptide administration
  ΔMAP: -34
[4]; first 5 minutes after reversal, more negative = more toxic
  average total toxicity score (TTS±SD): -7.0±5.2
[4]; maximum percent change
  ΔCO: -38%
  ΔVO2: -35%
LMWH (LHN-1, Logiparin) [5]; dogs, 3 minute measurement
  aPTT reversal: 50%
LMWH (LHN-1, Logiparin) [5]; dogs, 10 minute measurement
  aPTT reversal: 83%
LMWH (LHN-1, Logiparin) [5]; dogs, 30 minute measurement
  aPTT reversal: 78%
LMWH (LHN-1, Logiparin) [5]; dogs, Logiparin 150 IU/kg, agent 1.5 mg/kg IV after 30 min, 3 min post-administration, corrected for metabolism
  Percent reversal of LMWH anticoagulation, ACT: 99%
LMWH (LHN-1, Logiparin) [5]; same study, 3 min
  Percent reversal of LMWH anticoagulation, FNa: 99%
  Percent reversal of LMWH anticoagulation, FXa: 63%
  Percent reversal of LMWH anticoagulation, TCT: 100%
LMWH (LHN-1, Logiparin) [5]; same study, 10 min
  Percent reversal of LMWH anticoagulation, ACT: 88%
  Percent reversal of LMWH anticoagulation, FXa: 45%
  Percent reversal of LMWH anticoagulation, TCT: 98%
LMWH (LHN-1, Logiparin) [5]; same study, 30 min
  Percent reversal of LMWH anticoagulation, ACT: 82%
  Percent reversal of LMWH anticoagulation, FNa: 86%
  Percent reversal of LMWH anticoagulation, FXa: 44%
  Percent reversal of LMWH anticoagulation, TCT: 96%
[6]; administered over 10 sec
  Total Toxicity Score: -6.4 ± 3.8
  ΔCO: -32%
  ΔHr: -18 beats per minute
  ΔMAP: -32 mm Mercury
  ΔVO2: -26%
[6]; administered over 3 min
  Total Toxicity Score: -7.2 ± 3.5
  ΔCO: -28%
  ΔHr: -36 beats per minute
  ΔMAP: -18 mm Mercury
  ΔVO2: -23%
[7]
  maximum mean increase in pulmonary artery diastolic (PAD) pressure: +10 mm Mercury
  maximum mean increase in pulmonary artery systolic (PAS) pressure: +10 mm Mercury
  ΔHR: -18 beats per minute
  ΔMAP: -32 mm Mercury
[7]; first 5 minutes after reversal, 1:1 peptide to LMWH
  Total Toxicity Score: -7.6 ± 4.8
[7]; maximum percent change
  ΔCO: -32%
  ΔVO2: -26%
[8]; administered over 10 sec
  Total Toxicity Score: -7.1 ± 4.63
[8]; administered over 3 min
  Total Toxicity Score: -5.66 ± 4.04
[9]; Enoxaparin 100 IU/kg, 5 minutes
  Maximum hemodynamic change, Mean BP: -7 mm Mercury
[9]; Enoxaparin, 5 minutes
  Maximum hemodynamic change, CO: -23%
  Maximum hemodynamic change, HR: -17 beats/min
  Maximum hemodynamic change, VO2: -23%
[9]; Enoxaparin, listed as Prot[+21]
  Total Toxicity Score (TTS): -5.77
[9]; Enoxaparin, listed as [+21] n-protamine
  Total Toxicity Score (TTS): -5.77 ± 3.46
LMWH (LHN-1, Logiparin) [10]; [14]
  Percent reversal of LMWH anticoagulation, FNa: 96%
  Percent reversal of LMWH anticoagulation, FXa: 63%
  Percent reversal of LMWH anticoagulation, TCT: 99%
LMWH (LHN-1, Logiparin) [10]; [15]
  Percent reversal of LMWH anticoagulation, ACT: 83%
  Percent reversal of LMWH anticoagulation, FXa: 45%
  Percent reversal of LMWH anticoagulation, TCT: 98%
LMWH (LHN-1, Logiparin) [10]; [16]
  Percent reversal of LMWH anticoagulation, ACT: 78%
  Percent reversal of LMWH anticoagulation, FNa: 86%
  Percent reversal of LMWH anticoagulation, TCT: 96%
LMWH (LHN-1, Logiparin) [10]; administered over 3 min, 3 min
  Percent reversal of LMWH anticoagulation, FNa: 99%
  Percent reversal of LMWH anticoagulation, FXa: 68%
  Percent reversal of LMWH anticoagulation, TCT: 100%
LMWH (LHN-1, Logiparin) [10]; [17]
  Percent reversal of LMWH anticoagulation, ACT: 87%
  Percent reversal of LMWH anticoagulation, FNa: 98%
  Percent reversal of LMWH anticoagulation, FXa: 53%
  Percent reversal of LMWH anticoagulation, TCT: 99%
LMWH (LHN-1, Logiparin) [10]; [18]
  Percent reversal of LMWH anticoagulation, ACT: 80%
  Percent reversal of LMWH anticoagulation, FNa: 92%
  Percent reversal of LMWH anticoagulation, FXa: 45%
  Percent reversal of LMWH anticoagulation, TCT: 98%
LMWH (LHN-1, Logiparin) [10]; dogs, Logiparin, agent administered over 10 sec, 3 min post-administration
  Percent reversal of LMWH anticoagulation, ACT: 96%
LMWH (LHN-1, Logiparin) [10]; dogs, Logiparin, agent administered over 3 min, 3 min post-administration
  Percent reversal of LMWH anticoagulation, ACT: 99%
[11]
  mean decline in platelet count: -43%
[12]
  platelet counts: thrombocytopenia
[13]; 3 min post-administration
  Percent reversal of heparin anticoagulation, ACT: 102%
[13]; 30 min
  Percent reversal of heparin anticoagulation, ACT: 90%
[13]; same study, 3 min
  Percent reversal of heparin anticoagulation, APTT: 100%
  Percent reversal of heparin anticoagulation, FNa: 102%
  Percent reversal of heparin anticoagulation, FXa: 101%
  Percent reversal of heparin anticoagulation, PT: 84%
  Percent reversal of heparin anticoagulation, TCT: 101%
[13]; same study, 30 min
  Percent reversal of heparin anticoagulation, APTT: 127%
  Percent reversal of heparin anticoagulation, FXa: 96%
  Percent reversal of heparin anticoagulation, PT: 88%
  Percent reversal of heparin anticoagulation, TCT: 100%
